# Laboratory results taken from the NIST ThermoML archive (doi:10.1021/acs.jced.6b00951).
# Numbers after ± are expanded uncertainties.
# Settings: 100.3 kPa, Liquid; for viscosity: Capillary tube (Ostwald / Ubbelohde) method; for mass density: Vibrating tube method
structure (smiles),measurement,setting,value
O [water],viscosity,288.15 K,1.139 ± 0.016 mPa·s
same,viscosity,293.15 K,1.002 ± 0.015 mPa·s
same,viscosity,298.15 K,0.8897 ± 0.015 mPa·s
same,viscosity,303.15 K,0.7988 ± 0.015 mPa·s
same,viscosity,308.15 K,0.7184 ± 0.015 mPa·s
same,viscosity,313.15 K,0.6525 ± 0.015 mPa·s
same,viscosity,318.15 K,0.596 ± 0.015 mPa·s
same,viscosity,323.15 K,0.547 ± 0.015 mPa·s
same,mass density,323.15 K,988.04 ± 2.1 kg/m3
same,viscosity,328.15 K,0.5043 ± 0.015 mPa·s
same,mass density,328.15 K,985.69 ± 2.1 kg/m3
